According to the supplement of paper PMC12137928:
Structures can show the parent of a compound that is named as a salt.

System: HCT116
Conditions: 72 h
How it was run: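 HCT116 cells were plated at 250 per well in 1536-well plates and allowed 5 h to attach. CellTiter-Glo luminescence was normalized to vehicle as 0% and positive control as -100%, followed by pattern correction. Four-parameter Hill fits provided IC50 and maximal efficacy.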

| SMILES | IC50 cell viability (ICRF193 0 nM) | IC50 cell viability (ICRF193 200 nM) |
| --- | --- | --- |
| CCN(CC)CCNC(=O)c1ccc(N)cc1 [Procainamide] | > 45.8 µM | > 45.8 µM |
| CC(=O)OCC(=O)[C@@]12OC3(CCCC3)O[C@@H]1C[C@H]1[C@@H]3CCC4=CC(=O)C=C[C@]4(C)[C@@]3(F)[C@@H](O)C[C@@]12C [AMCINONIDE] | > 45.8 µM | > 45.8 µM |
| NCC(=O)CCC(=O)O [Aminolevulinic acid hydrochloride] | > 45.8 µM | > 45.8 µM |
| CN(C)C(=O)Oc1ccc[n+](C)c1 [Pyridostigmine bromide] | > 45.8 µM | > 45.8 µM |
| CCCCC(F)(F)[C@@]1(O)CC[C@H]2[C@@H](CC(=O)[C@@H]2CCCCCCC(=O)O)O1 [Lubiprostone] | > 45.8 µM | > 45.8 µM |
| C[C@@H]1C[C@H]2[C@@H]3C[C@H](F)C4=CC(=O)C=C[C@]4(C)[C@@]3(F)[C@@H](O)C[C@]2(C)[C@@]1(O)C(=O)CO [Flumethasone] | > 45.8 µM | > 45.8 µM |
| O=P(O)(O)C(O)(Cc1cccnc1)P(=O)(O)O [Risedronate sodium] | > 45.8 µM | > 45.8 µM |
| CCOC(=O)C1=C[C@]2(CC)CCCN3CCc4c(n1c1ccccc41)[C@@H]32 [Vinpocetine] | > 45.8 µM | > 45.8 µM |
| CC(C)C(=O)Nc1ccc([N+](=O)[O-])c(C(F)(F)F)c1 [Flutamide] | > 45.8 µM | > 45.8 µM |
| O=c1n(Cl)c(=O)n(Cl)c(=O)n1Cl [Symclosene] | > 45.8 µM | > 45.8 µM |
| O=C(O)COc1ccccc1 [Phenoxyacetic acid] | > 45.8 µM | > 45.8 µM |
| CC(=O)Nc1ccc(O)cc1 [Acetaminophen] | > 45.8 µM | > 45.8 µM |
| CC(C(=O)O)c1ccc(C2CCCCC2)c2ccccc12 (configuration not stated) [Quadrisol] | > 45.8 µM | > 45.8 µM |
| NC(=O)c1ncn([C@@H]2O[C@H](CO)[C@@H](O)[C@H]2O)n1 [Ribavirin] | > 45.8 µM | > 45.8 µM |
| COC(=O)c1cccnc1 [Methyl nicotinate] | > 45.8 µM | > 45.8 µM |
| C/C=C/C=C/C(=O)O [Sorbic acid] | > 45.8 µM | > 45.8 µM |
| CC[N+](CC)(CCNC(=O)C(=O)NCC[N+](CC)(CC)Cc1ccccc1Cl)Cc1ccccc1Cl [Ambenonium chloride] | > 45.8 µM | > 45.8 µM |
| N#Cc1nn(-c2c(Cl)cc(C(F)(F)F)cc2Cl)c(N)c1[S+]([O-])C(F)(F)F (configuration not stated) [Fipronil] | > 45.8 µM | > 45.8 µM |

More lines, now with the values ahead:

| IC50 cell viability (ICRF193 0 nM) | IC50 cell viability (ICRF193 200 nM) | SMILES |
| --- | --- | --- |
| > 45.8 µM | > 45.8 µM | CC(=O)Nc1ccc(OC(=O)c2ccccc2OC(C)=O)cc1 [Benorylate] |
| > 45.8 µM | > 45.8 µM | CCCCCCCCCCCCCCCC(=O)OC1CCCn2c1nc(C)c(CCN1CCC(c3noc4cc(F)ccc34)CC1)c2=O (configuration not stated) [Paliperidone Palmitate] |
| > 45.8 µM | > 45.8 µM | CCCCCCCCCCCCCCCCCCCCCCCCCCCCO [1-Octacosanol] |
| > 45.8 µM | > 45.8 µM | N#Cc1ccc2c(c1)N(CCCN1CCC(O)CC1)c1ccccc1S2 [PERICIAZINE] |
| > 45.8 µM | > 45.8 µM | Cc1cn([C@H]2C[C@H](N=[N+]=[N-])[C@@H](CO)O2)c(=O)[nH]c1=O [3'-Azido-3'-deoxythymidine] |
| > 45.8 µM | > 45.8 µM | N#C[C@@H]1C[C@@H]2C[C@@H]2N1C(=O)[C@@H](N)C12CC3CC(CC(O)(C3)C1)C2 [Saxagliptin] |
| > 45.8 µM | > 45.8 µM | CC(=O)OC(C)C[N+](C)(C)C (configuration not stated) [Methacholine chloride] |
| > 45.8 µM | > 45.8 µM | Cc1ccc(C(=O)c2ccc(CC(=O)O)n2C)cc1 [Tolmetin sodium dihydrate] |
| > 45.8 µM | > 45.8 µM | CC1Cc2ccccc2N1NC(=O)c1ccc(Cl)c(S(N)(=O)=O)c1 (configuration not stated) [Indapamide] |
| > 45.8 µM | > 45.8 µM | COc1cc2c(cc1OC)[C@H]1C[C@@H](OC(=O)[C@@H](N)C(C)C)[C@H](CC(C)C)CN1CC2 [Valbenazine] |
| > 45.8 µM | > 45.8 µM | CC(C)(C)NC(=O)[C@H]1CC[C@H]2[C@@H]3CC=C4C=C(C(=O)O)CC[C@]4(C)[C@H]3CC[C@]12C [Epristeride] |
| > 45.8 µM | > 45.8 µM | CCCCC(CC)COc1ccc(-c2nc(-c3ccc(OC)cc3)nc(-c3ccc(OCC(CC)CCCC)cc3O)n2)c(O)c1 (configuration not stated) [BEMOTRIZINOL] |
| > 45.8 µM | > 45.8 µM | CC(C)=CCC/C(C)=C/CC/C(C)=C/CCC(=O)OC/C=C(\C)CCC=C(C)C [Gefarnate] |
